What was measured:
[1] = system: spindle assembly checkpoint; test: SAC-Formation - Paclitaxel-Induced Assay; assay type: cell-based; details: Homo sapiens; HeLa cells, paclitaxel 0.05 μM, 24 h, phosphorylated histone H3 on serine 10
Excerpt: The spindle assembly checkpoint assures the proper segregation of chromosomes during mitosis. Upon entry into mitosis, chromosomes begin to condensate which is accompanied by the phosphorylation of histone H3 on serine 10. Dephosphorylation of histone H3 on serine 10 begins in anaphase and ends at early telophase. Accordingly, phosphorylation of histone H3 on serine 10 can be utilized as a marker of cells in mitosis. Nocodazole is a microtubule destabilizing substance. Paclitaxel is a microtubule stabilizing compound. Thus, nocodazole as well as paclitaxel interfere with microtubule dynamics and mobilize the spindle assembly checkpoint. […] The mitotic breakthrough can be detected by the decrease of cells with phosphorylation of histone H3 on serine 10. This decline is used as a marker to determine the capability of compounds of the present invention to induce a mitotic breakthrough. The typical morphological alteration of nuclei with a prematurely completed mitosis after SAC-inhibition can be monitored via image analysis routines supporting those findings.
The nocodazole and paclitaxel variations were used to focus on compounds that are capable of inhibiting a SAC induced by both microtubule destabilization as well as microtubule stabilization. When SAC inducing agents and compounds are given simultaneously, inhibitors that effectively block the SAC during formation or abrogation are identified. When cells are incubated with a SAC inducing agent and the SAC interfering compound is given after a defined time, inhibitors are identified that effectively block SAC abrogation.
Cultivated cells of the human cervical tumor cell line HeLa (ATCC CCL-2) were plated at a density of 1000 cells/well in a 1536-well microtiter plate in 2 μl PAA Ham's F12 Medium supplemented with 1% (v/v) glutamine, 1% (v/v) penicillin, 1% (v/v) streptomycin and 10% (v/v) fetal calf serum. After incubation overnight at 37° C., 10 μl/well paclitaxel at a final concentration of 0.05 μM were added to cells. Test compounds solubilized in dimethyl sulfoxide (DMSO) were added at various concentrations (0 μM, as well as in the range of 0.005 μM-20 μM; the final concentration of the solvent DMSO was 0.5% (v/v)). Cells were incubated for 24 h at 37° C. in the presence of test compounds in combination with paclitaxel. Thereafter, cells were fixed in 4% (v/v) paraformaldehyde in phosphate buffered saline (PBS) at 4° C. overnight then permeabilized in 0.1% (v/v) Triton X™ 100 in PBS at room temperature for 20 min and blocked in 0.5% (v/v) bovine serum albumin (BSA) in PBS at room temperature for 15 min. After washing with PBS, 5 μl/well antibody solution (anti-phospho-histone H3 clone 3H10, FITC; Millipore, Cat #16-222; 1:1000 dilution) was added to cells, which were incubated for 2 h at room temperature. Afterwards, cells were washed with PBS and 5 μl/well solution of HOECHST 33342 dye (5 μg/ml) was added to cells and cells were incubated 15 min at room temperature in the dark. Cells were washed twice with PBS then covered with PBS and stored at 4° C. until analysis. Images were acquired with a PERKIN ELMER OPERA™ High-Content Analysis reader. Images were analyzed with image analysis software MetaXpress™ from Molecular devices utilizing the Mitotic Index application module. In this assay both labels HOECHST 33342 and phosphorylated Histone H3 on serine 10 were measured. HOECHST 33342 labels the DNA and is used to count the cell number. The staining of phosphorylated Histone H3 on serine 10 determines the number of mitotic cells. […] Otherwise cells were arrested at G2/M phase of the cell cycle progression. The raw assay data were further analyzed by four-parametric hill equation using Genedata's Assay Analyzer and Condoseo software.

CDK2/CycE = CDK2/CycE (Homo sapiens (Human), UniProt P24941); test: CDK2/CycE kinase assay (TR-FRET); assay type: biochemical; details: 10 μM ATP; read-out: CDK2 avg (IC50 [mol/l])
Excerpt: CDK2/CycE-inhibitory activity of compounds of the present invention was quantified employing the CDK2/CycE TR-FRET assay as described in the following paragraphs.
Recombinant fusion proteins of GST and human CDK2 and of GST and human CycE, expressed in insect cells (Sf9) and purified by Glutathion-Sepharose affinity chromatography, were purchased from ProQinase GmbH (Freiburg, Germany). As substrate for the kinase reaction biotinylated peptide biotin-Ttds-YISPLKSPYKISEG (C-terminus in amid form) was used which can be purchased e.g. form the company JERINI peptide technologies (Berlin, Germany).
For the assay 50 nl of a 100 fold concentrated solution of the test compound in DMSO was pipetted into a black low volume 384 well microtiter plate (Greiner Bio-One, Frickenhausen, Germany), 2 μl of a solution of CDK2/CycE in aqueous assay buffer [50 mM Tris/HCl pH 8.0, 10 mM MgCl2, 1.0 mM dithiothreitol, 0.1 mM sodium ortho-vanadate, 0.01% (v/v) Nonidet-P40 (Sigma)] were added and the mixture was incubated for 15 min at 22° C. to allow pre-binding of the test compounds to the enzyme before the start of the kinase reaction. Then the kinase reaction was started by the addition of 3 μl of a solution of adenosine-tri-phosphate (ATP, 16.7 μM=>final conc. in the 5 μl assay volume is 10 μM) and substrate (1.25 μM=>final conc. in the 5 μl assay volume is 0.75 μM) in assay buffer and the resulting mixture was incubated for a reaction time of 25 min at 22° C. The concentration of CDK2/CycE was adjusted depending of the activity of the enzyme lot and was chosen appropriate to have the assay in the linear range, typical concentrations were in the range of 130 ng/ml. The reaction was stopped by the addition of 5 μl of a solution of TR-FRET detection reagents (0.2 μM streptavidine-XL665 [Cisbio Bioassays, Codolet, France] and 1 nM anti-RB(pSer807/pSer811)-antibody from BD Pharmingen [#558389] and 1.2 nM LANCE EU-W1024 labeled anti-mouse IgG antibody [Perkin-Elmer, product no. AD0077, as an alternative a Terbium-cryptate-labeled anti-mouse IgG antibody from Cisbio Bioassays can be used]) in an aqueous EDTA-solution (100 mM EDTA, 0.2% (w/v) bovine serum albumin in 100 mM HEPES/NaOH pH 7.0).
The resulting mixture was incubated 1 h at 22° C. to allow the formation of complex between the phosphorylated biotinylated peptide and the detection reagents. Subsequently the amount of phosphorylated substrate was evaluated by measurement of the resonance energy transfer from the Eu-chelate to the streptavidine-XL. Therefore, the fluorescence emissions at 620 nm and 665 nm after excitation at 350 nm was measured in a TR-FRET reader, e.g. a Rubystar (BMG Labtechnologies, Offenburg, Germany) or a Viewlux (Perkin-Elmer). The ratio of the emissions at 665 nm and at […] was taken as the measure for the amount of phosphorylated substrate. The data were normalised (enzyme reaction without inhibitor=0% inhibition, all other assay components but no enzyme=100% inhibition).

Compound `CCc1ccccc1NC(=O)c1c(C)nsc1Nc1cnccn1` [Example 1, N-(2-Ethylphenyl)-3-methyl-5-(pyrazin-2-ylamino)-1,2-thiazole-4-carboxamide] has an IC50 [1] of 4.9 µM and an IC50 (CDK2/CycE) of over 20 µM.
`CCc1ccccc1NC(=O)c1c(C)nsc1Nc1ccnc(C#N)n1` [Example 6, 5-[(2-Cyanopyrimidin-4-yl)amino]-N-(2-ethylphenyl)-3-methyl-1,2-thiazole-4-carboxamide] showed an IC50 [1] of 1.2 µM and an IC50 (CDK2/CycE) of over 20 µM.
`CCc1ccccc1NC(=O)c1c(C)nsc1Nc1ccc(C#N)cn1` [Example 7, 5-[(5-Cyanopyridin-2-yl)amino]-N-(2-ethylphenyl)-3-methyl-1,2-thiazole-4-carboxamide] gave an IC50 [1] of 2.5 µM and an IC50 (CDK2/CycE) of over 20 µM.
In the case of `CCc1ccccc1NC(=O)c1c(C)nsc1Nc1ncccc1C#N` [Example 8, 5-[(3-Cyanopyridin-2-yl)amino]-N-(2-ethylphenyl)-3-methyl-1,2-thiazole-4-carboxamide], the IC50 [1] is reported as 18 µM and the IC50 (CDK2/CycE) is reported as over 20 µM.
`CCc1ccccc1NC(=O)c1c(C)nsc1Nc1cc(-n2ccnc2)ncn1` [Example 9, N-(2-Ethylphenyl)-5-{[6-(1H-imidazol-1-yl)pyrimidin-4-yl]amino}-3-methyl-1,2-thiazole-4-carboxamide] gave an IC50 [1] of 3 µM and an IC50 (CDK2/CycE) of over 20 µM.
For `CCc1ccccc1NC(=O)c1c(C)nsc1Nc1ncnc2ccccc12` [Example 10, N-(2-Ethylphenyl)-3-methyl-5-(quinazolin-4-ylamino)-1,2-thiazole-4-carboxamide], the IC50 [1] was 11 µM and the IC50 (CDK2/CycE) was over 20 µM.
Compound `CCc1ccccc1NC(=O)c1c(C)nsc1Nc1nc2ccccc2o1` [Example 11, 5-(1,3-Benzoxazol-2-ylamino)-N-(2-ethylphenyl)-3-methyl-1,2-thiazole-4-carboxamide] has an IC50 [1] of 2.9 µM and an IC50 (CDK2/CycE) of over 20 µM.
Compound `CCc1ccccc1NC(=O)c1c(C)nsc1Nc1ncnc2sccc12` [Example 12, N-(2-Ethylphenyl)-3-methyl-5-(thieno[2,3-d]pyrimidin-4-ylamino)-1,2-thiazole-4-carboxamide] has an IC50 [1] of 6.9 µM and an IC50 (CDK2/CycE) of over 20 µM.
`CCc1ccccc1NC(=O)c1c(C)nsc1Nc1ncnc2ccsc12` [Example 13, N-(2-Ethylphenyl)-3-methyl-5-(thieno[3,2-d]pyrimidin-4-ylamino)-1,2-thiazole-4-carboxamide] showed an IC50 [1] of 2.1 µM and an IC50 (CDK2/CycE) of over 20 µM.
`CCc1ccccc1NC(=O)c1c(C)nsc1Nc1nc2ccccc2s1` [Example 14, 5-(1,3-Benzothiazol-2-ylamino)-N-(2-ethylphenyl)-3-methyl-1,2-thiazole-4-carboxamide] gave an IC50 [1] of 0.76 µM and an IC50 (CDK2/CycE) of over 20 µM.
`CCc1ccccc1NC(=O)c1c(C)nsc1Nc1cc(NC)ncn1` [Example 15, N-(2-Ethylphenyl)-3-methyl-5-{[6-(methylamino)pyrimidin-4-yl]amino}-1,2-thiazole-4-carboxamide] gave an IC50 [1] of over 20 µM and an IC50 (CDK2/CycE) of over 20 µM.
Work on `CCc1ccccc1NC(=O)c1c(C)nsc1Nc1nccc(OC)n1` [Example 16, N-(2-Ethylphenyl)-5-[(4-methoxypyrimidin-2-yl)amino]-3-methyl-1,2-thiazole-4-carboxamide] yielded an IC50 [1] of over 20 µM and an IC50 (CDK2/CycE) of over 20 µM.
`CCc1ccnc(Nc2snc(C)c2C(=O)Nc2ccccc2CC)n1` [Example 17, N-(2-Ethylphenyl)-5-[(4-ethylpyrimidin-2-yl)amino]-3-methyl-1,2-thiazole-4-carboxamide] showed an IC50 [1] of 19 µM and an IC50 (CDK2/CycE) of over 20 µM.
`CCc1ccccc1NC(=O)c1c(C)nsc1Nc1cc(C(F)(F)F)ccn1` [Example 18, N-(2-Ethylphenyl)-3-methyl-5-{[4-(trifluoromethyl)pyridin-2-yl]amino}-1,2-thiazole-4-carboxamide] showed an IC50 [1] of 2 µM and an IC50 (CDK2/CycE) of over 20 µM.
`CCc1ccccc1NC(=O)c1c(C)nsc1Nc1cnc2ccccc2n1` [Example 19, N-(2-Ethylphenyl)-3-methyl-5-(quinoxalin-2-ylamino)-1,2-thiazole-4-carboxamide] was tested, and the IC50 [1] was 0.14 µM and the IC50 (CDK2/CycE) was over 20 µM.
Work on `CCc1ccccc1NC(=O)c1c(C)nsc1Nc1cnc2cc(F)ccc2n1` [Example 20, N-(2-Ethylphenyl)-5-[(6-fluoroquinoxalin-2-yl)amino]-3-methyl-1,2-thiazole-4-carboxamide] yielded an IC50 [1] of 0.4 µM and an IC50 (CDK2/CycE) of over 20 µM.
`CCc1ccccc1NC(=O)c1c(C)nsc1Nc1nc2ccccc2nc1C` [Example 21, N-(2-Ethylphenyl)-3-methyl-5-[(3-methylquinoxalin-2-yl)amino]-1,2-thiazole-4-carboxamide] gave an IC50 [1] of 3.6 µM and an IC50 (CDK2/CycE) of over 20 µM.
With `COc1ccc(NC(=O)c2c(C)nsc2Nc2cnc3cccc(C)c3n2)cn1` [Example 22, N-(6-methoxypyridin-3-yl)-3-methyl-5-[(8-methylquinoxalin-2-yl)amino]-1,2-thiazole-4-carboxamide] the IC50 [1] was 0.26 µM and the IC50 (CDK2/CycE) was over 20 µM.
For `COc1ccc(NC(=O)c2c(C)nsc2Nc2cnc3cc(Cl)ccc3n2)cn1` [Example 23, 5-[(6-Chloroquinoxalin-2-yl)amino]-N-(6-methoxypyridin-3-yl)-3-methyl-1,2-thiazole-4-carboxamide], the IC50 [1] was 0.5 µM and the IC50 (CDK2/CycE) was over 20 µM.
With `COc1ccc(NC(=O)c2c(C)nsc2Nc2nccnc2C#N)cn1` [Example 24, 5-[(3-Cyanopyrazin-2-yl)amino]-N-(6-methoxypyridin-3-yl)-3-methyl-1,2-thiazole-4-carboxamide] the IC50 [1] was 8.5 µM and the IC50 (CDK2/CycE) was over 20 µM.
`COc1ccc(NC(=O)c2c(C)nsc2Nc2cc(C#N)ccn2)cn1` [Example 25, 5-[(4-Cyanopyridin-2-yl)amino]-N-(6-methoxypyridin-3-yl)-3-methyl-1,2-thiazole-4-carboxamide] was tested, and the IC50 [1] was 1.2 µM and the IC50 (CDK2/CycE) was over 20 µM.
